# In ChEMBL document CHEMBL3507680, “University of Dundee, Gates Library screen for HepG2 cell viability”:
# Assay: Human HepG2 cell viability assay in 384 well format
# Type: toxicity, cell-based
# Set-up: dose 125 nL, time 70.5 hour; cytotoxicity at 70.5 h: concentration not given beside the values
# Details: HepG2 cells, read-out: Inhibition
row,Compound,cytotoxicity at 70.5 h [%]
1,CSCCNC(=O)C1CCC(=O)N(C2CCCC2)C1 (configuration not stated),0.162
2,CNc1cncc(C2CCCN2S(=O)(=O)c2ccccc2F)n1 (configuration not stated),-0.0855
3,COc1cc2nc(NCc3cc(C)on3)nc(N)c2cc1OC,34.1
4,Cc1cccc(CN2CCCC3(CCN(C4CCSCC4)C3)C2=O)c1 (configuration not stated),7.94
5,CC1CN(C)c2ccccc2CN1C(=O)c1ccncc1F (configuration not stated),35
6,COCCN1CCC(NCc2cccnc2)C1 (configuration not stated),2.68
7,O=C(Nc1ccc(-c2csnn2)cc1)N1CCC(N2CCCC2)C1 (configuration not stated),-14.2
8,CCc1ccc(S(=O)(=O)Nc2cn(C)cc(Br)c2=O)cc1,7.59
9,CCn1cnnc1CNC(=O)N1CCN(C(C)C)CC1,26
10,C=C(C)CN(CC)S(=O)(=O)c1cccc(F)c1C#N,-9.8
11,Cc1noc(C(C)N2CCN(CC(=O)N3CCOCC3)CC2)n1 (configuration not stated),24
12,CN(C)C(=O)N1CCc2ccc(=O)[nH]c2CC1,-3.89
13,COc1ccc(COCC(O)CNC(=O)c2cc(C)no2)cc1 (configuration not stated),-4.49
14,Cc1n[nH]c(C2CN(C(=O)c3ccnc(C4CC4)n3)CCO2)n1 (configuration not stated),-10.4
15,Cc1cnn(CC2CN(Cc3nc(C)no3)CCO2)c1 (configuration not stated),-1.3
16,O=C(c1cccnc1-n1cncn1)N1CCN(CC2CC2)CC1,-7.39
17,Cc1ccccc1CC(C)NCc1c(C)nn(C)c1N1CCOCC1 (configuration not stated),-0.684
18,Cc1ccccc1-n1cnnc1SCCOCC1CCCO1 (configuration not stated),-5
19,COCCc1noc(CN2CCc3nn(C(C)C)c(=O)cc3C2)n1,32.4
20,Cc1nc(CN2CCN(C(=O)c3sccc3C)CC2)cs1,-11.5
21,COc1ccc(CN(Cc2ccsc2)CC2CCCO2)cn1 (configuration not stated),-2.5
22,Cc1cccc(-n2cc(C(=O)N3CCCC(n4cccn4)C3)nn2)c1 (configuration not stated),-13.8
23,CC(C)(O)CN1CCN(C(=O)c2ccc(Cl)c3cccnc23)CC1,26
24,Cc1nnsc1CN(C)C(=O)CN1CC2(CCNCC2)OC1=O,-2.76

row,Compound,cytotoxicity at 70.5 h [%]
1,CCS(=O)(=O)N1CCC(n2nc(-c3cc(C)oc3C)ccc2=O)CC1,24.5
2,CCc1nc(Cn2ccnc2-c2nccn2C)no1,-7.78
3,CCN(CC1CCOC1)C(=O)c1ccn(-c2cc(C)ccc2OC)n1 (configuration not stated),-2.72
4,Cn1ccc(C(=O)NC2CCN(c3ncccn3)CC2)cc1=O,-15.3
5,CN(Cc1ccc([S+](C)[O-])cc1)c1ccc(C(F)(F)F)cn1 (configuration not stated),-4.29
6,CCCC1CCCN(C(=O)CCn2cccn2)CC1 (configuration not stated),22.3
7,CC(C)CN1CCCn2nc(CNC(=O)c3cccnc3O)cc2C1,14.1
8,CC(=O)N1CCc2nnc(C3CCCN3CC3CCCCC3)n2CC1 (configuration not stated),-6.06
9,Cc1ccc(-c2ccccc2CC2(C(=O)NC(C)C)CCCNC2)cc1 (configuration not stated),-3.27
10,CN(Cc1ccco1)C(=O)NCc1ccnc(SC(C)(C)C)c1,-8.67
11,CCC1COCCN1C(=O)CNC(=O)c1ccsc1 (configuration not stated),-8.2
12,Cc1nc2sccn2c1C(=O)N1CCc2[nH]cnc2C1,10.2
13,Cc1noc(NC(=O)c2ccc(C)c(F)c2)n1,41
14,CC(=O)N(C)Cc1cccc(NC(=O)c2cnn(C)c2C)c1,22
15,CN(CCc1cn[nH]c1)C(=O)C(c1ccc(F)cc1)N(C)C (configuration not stated),-9.33
16,COCc1ncn2c1CN(C(=O)c1cnc3ccccc3c1)CC2,1.48
17,Cc1cc2nc(-c3cn(C4CCNCC4)nn3)[nH]c2cc1C,-2.26
18,Cc1nn(Cc2ccc(F)cc2)c2[nH]nc(N)c12,-9.36
19,COc1cccc(N2CCC(CNC(=O)CN3CSCC3=O)C2)c1 (configuration not stated),-9.99
20,CCn1c(C)nnc1Sc1nn2cc(C)nc2s1,-5.8
21,Cc1ccc2nc(C(=O)N3CCC(CCn4cccn4)CC3)cn2c1,16
22,CN(C)CCN1C(=O)CCC12CCCN(C(=O)c1cccnc1)CC2 (configuration not stated),-5.29
23,COc1ccc(C2CCCN2S(=O)(=O)c2cc(F)ccc2F)cc1 (configuration not stated),-6.85
